Paper PMC4506051, “Pharmacokinetic Profiles of Active Ingredients and Its Metabolites Derived from Rikkunshito, a Ghrelin Enhancer, in Healthy Japanese Volunteers: A Cross-Over, Randomized Study” (PLoS ONE, 2015)
Read-outs that look alike come from different tables or passages of the source.

Assays:
[1] = Exploratory trial: plasma concentration of rikkunshito ingredients after single oral rikkunshito 7.5 g; format: in vivo; conditions: for Plasma concentration, 0 h: 0 h (preadministration), single oral rikkunshito 7.5 g
Procedure, shortened: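 Plasma and urine levels were measured by LC–MS/MS after one 7.5 g oral dose of rikkunshito. Samples were collected before dosing and at 0.5–8 h for blood, or in 0–4 h and 4–8 h fractions for urine. Synephrine was determined after protein-removal plate cleanup; the other ingredients after β-glucuronidase deconjugation (2 h, 37°C) and SPE.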

[2] = Method validation: stability in blood
[3] = Method validation: post-preparative stability (autosampler)
[4] = Method validation: short-term stability in plasma
[5] = cited from earlier work
[6] = Method validation: freeze-thaw stability in plasma
[7] = Dose proportionality (linearity) test by power model for C max and AUC0-last; conditions: for Dose proportionality test using power model, Inference: linear when 90% CI of β included 1, CIlower ≥0.8, and CIupper ≤1.25; for Dose proportionality test using power model, β: rikkunshito 2.5, 5.0 or 7.5 g
Description: The dose proportionality was analyzed via a power model [21, 22]. […] Evaluation of linearity of the dosage-exposure relationship was conducted with Phoenix WinNonlin and SAS 9.2 (SAS Institute, Inc., Cary, NC).

[8] = Method validation: stability in standard, stock and working solution
[9] = Method validation: long-term stability in plasma
[10] = on ice 2 h, higher concentration (800 / 320 / 4000 pg/mL)
[11] = on ice 2 h, lower concentration (20 / 8 / 100 pg/mL)
[12] = autosampler set at 4°C, 48 h, higher concentration (800 / 320 / 4000 pg/mL)
[13] = autosampler set at 4°C, 48 h, lower concentration (20 / 8 / 100 pg/mL)
[14] = room temperature (1°C to 30°C) 4 h, higher concentration (800 / 320 / 4000 pg/mL)
[15] = room temperature (1°C to 30°C) 4 h, lower concentration (20 / 8 / 100 pg/mL)
[16] = −30°C to −10°C, 3 cycles, higher concentration (800 / 320 / 4000 pg/mL)
[17] = −30°C to −10°C, 3 cycles, lower concentration (20 / 8 / 100 pg/mL)
[18] = refrigerator 128 days, higher concentration (10 / 4 / 50 ng/mL)
[19] = refrigerator 128 days, lower concentration (0.1 / 0.04 / 0.5 ng/mL)
[20] = refrigerator (1°C to 8°C) 54 days, 0.1 mg/mL (naringenin 0.5 mg/mL)
[21] = refrigerator (1°C to 8°C) 129 days, 0.1 mg/mL (naringenin 0.5 mg/mL)

COc1ccc(-c2oc3c(OC)c(OC)c(OC)c(OC)c3c(=O)c2OC)cc1OC [Heptamethoxyflavone, 3,3′,4′,5,6,7,8-heptamethoxyflavone]
Plasma concentration, 0 h ([1]; mean ± S.D., n = 4): BQL
concentration at 0.5 h ([1]; human, plasma, 0.5 h after single oral rikkunshito 7.5 g, mean ± S.D., n = 4, read-out: Plasma concentration, 0.5 h): 0.171 ± 0.18 ng/mL
concentration at 1 h ([1]; human, plasma, 1 h after single oral rikkunshito 7.5 g, mean ± S.D., n = 4): 0.253 ± 0.301 ng/mL
concentration at 2 h ([1]; human, plasma, 2 h after single oral rikkunshito 7.5 g, mean ± S.D., n = 4, read-out: Plasma concentration, 2 h): 0.157 ± 0.187 ng/mL
concentration at 4 h ([1]; human, plasma, 4 h after single oral rikkunshito 7.5 g, mean ± S.D., n = 4, read-out: Plasma concentration, 4 h): 0.0569 ± 0.0821 ng/mL
concentration at 8 h ([1]; human, plasma, 8 h after single oral rikkunshito 7.5 g, mean ± S.D., n = 4, read-out: Plasma concentration, 8 h): 6.13 ± 12.3 pg/mL
Stability in blood, RR [2, 10]: 92.3%
Stability in blood, RR [2, 11]: 97.5%
Stability in blood, RR ([2]; room temperature 2 h, higher concentration (pachymic acid 800, heptamethoxyflavone 320, naringenin 4000 pg/mL)): 96.0%
Stability in blood, RR ([2]; room temperature 2 h, lower concentration (pachymic acid 20, heptamethoxyflavone 8, naringenin 100 pg/mL)): 107.1%
Post-preparative stability, RR ([3]; autosampler set at 4°C, 24 h, higher concentration (pachymic acid 800, heptamethoxyflavone 320 pg/mL)): 86.3%
Post-preparative stability, RR ([3]; autosampler set at 4°C, 24 h, lower concentration (pachymic acid 20, heptamethoxyflavone 8 pg/mL)): 100.3%
Post-preparative stability, RR [3, 12]: 90.8%
Post-preparative stability, RR [3, 13]: 96.5%
Short-term stability, RR ([4]; room temperature 25 h, higher concentration (pachymic acid 800, heptamethoxyflavone 320 pg/mL)): 91.2%
Short-term stability, RR ([4]; room temperature 25 h, lower concentration (pachymic acid 20, heptamethoxyflavone 8 pg/mL)): 90.3%
Short-term stability, RR [4, 14]: 103.3%
Short-term stability, RR [4, 15]: 99.5%
Maximum plasma concentration in the preliminary pharmacokinetics study ([5]; 7.5 g dosage): 0.253 ± 0.301 ng/mL
Freeze-thaw stability, RR [6, 16]: 113.5%
Freeze-thaw stability, RR [6, 17]: 107.1%
Dose proportionality test using power model, Inference ([7]; AUC0-last): Nonlinear
Dose proportionality test using power model, β ([7]; AUC0-last): 0.804
Dose proportionality test using power model, Inference ([7]; Cmax): Nonlinear
Dose proportionality test using power model, β ([7]; Cmax): 0.817
Working solution stability, RR ([8]; refrigerator 53 days, higher concentration (pachymic acid 10, heptamethoxyflavone 4, naringenin 50 ng/mL)): 100.4%
Working solution stability, RR ([8]; refrigerator 53 days, lower concentration (pachymic acid 0.1, heptamethoxyflavone 0.04, naringenin 0.5 ng/mL)): 109.3%
Working solution stability, RR [8, 18]: 98.8%
Working solution stability, RR [8, 19]: 101.6%
Stock solution stability, RR [8, 20]: 54 days: 98.7%
Stock solution stability, RR [8, 21]: 129 days: 92.7%
Long-term stability, RR ([9]; freezer −30°C to −10°C, 13 days, lower concentration (pachymic acid 20, heptamethoxyflavone 8 pg/mL)): 90.3%
Long-term stability, RR ([9]; freezer, 13 days, higher concentration (pachymic acid 800, heptamethoxyflavone 320 pg/mL)): 113.1%
Long-term stability, RR ([9]; freezer, 39 days, higher concentration (800 / 320 pg/mL)): 99.7%
Long-term stability, RR ([9]; freezer, 39 days, lower concentration (20 / 8 pg/mL)): 85.5%
Long-term stability, RR ([9]; freezer, 228 days, higher concentration (800 / 320 pg/mL)): 87.5%
Long-term stability, RR ([9]; freezer, 228 days, lower concentration (20 / 8 pg/mL)): 85.0%

O=C1C[C@@H](c2ccc(O)cc2)Oc2cc(O)cc(O)c21 [Naringenin]
concentration at 0 h ([1]; human, in vivo, po): 0.378 ± 0.755 ng/mL
concentration at 0.5 h ([1]; human, in vivo, po): 0.0358 ± 0.0715 ng/mL
concentration at 2 h ([1]; human, in vivo, po): 0.0813 ± 0.105 ng/mL
concentration at 4 h ([1]; human, in vivo, po): 0.0715 ± 0.0831 ng/mL
Plasma concentration, 1 h ([1]; in vivo, po): BQL
Plasma concentration, 8 h ([1]; in vivo, po): BQL
Stability in blood, RR [2, 10]: 98.1%
Stability in blood, RR [2, 11]: 95.8%
Post-preparative stability, RR [3, 12]: 87.1%
Post-preparative stability, RR [3, 13]: 85.6%
Post-preparative stability, RR ([3]; naringenin 100 pg/mL, autosampler set at 4°C, 25 h as printed in the cell): 91.7%
Post-preparative stability, RR ([3]; naringenin 4000 pg/mL, autosampler set at 4°C, 25 h as printed in the cell): 96.7%
Short-term stability, RR ([4]; naringenin 100 pg/mL, room temperature, 24 h as printed in the cell): 113.8%
Short-term stability, RR ([4]; naringenin 4000 pg/mL, room temperature, 24 h as printed in the cell): 112.2%
Short-term stability, RR [4, 14]: 92.8%
Short-term stability, RR [4, 15]: 102.1%
Maximum plasma concentration in the preliminary pharmacokinetics study ([5]; 7.5 g dosage): 0.162 ± 0.0392 ng/mL
Freeze-thaw stability, RR [6, 16]: 96.7%
Freeze-thaw stability, RR [6, 17]: 90.6%
Dose proportionality test using power model, Inference ([7]; AUC0-last): Nonlinear
Dose proportionality test using power model, β ([7]; AUC0-last): 1.02
Dose proportionality test using power model, Inference ([7]; Cmax): Nonlinear
Dose proportionality test using power model, β ([7]; Cmax): 1.06
Working solution stability, RR [8, 18]: 99.8%
Working solution stability, RR [8, 19]: 102.6%
Stock solution stability, RR [8, 20]: 54 days: 97.5%
Stock solution stability, RR [8, 21]: 129 days: 96.7%
Long-term stability, RR ([9]; naringenin 100 pg/mL, freezer −30°C to −10°C, 22 days): 101.9%
Long-term stability, RR ([9]; naringenin 100 pg/mL, freezer, 31 days): 98.1%
Long-term stability, RR ([9]; naringenin 100 pg/mL, freezer, 220 days): 86.8%
Long-term stability, RR ([9]; naringenin 4000 pg/mL, freezer, 22 days): 95.8%
Long-term stability, RR ([9]; naringenin 4000 pg/mL, freezer, 31 days): 95.8%
Long-term stability, RR ([9]; naringenin 4000 pg/mL, freezer, 220 days): 85.2%

COc1ccc(-c2cc(=O)c3c(OC)c(OC)c(OC)c(OC)c3o2)cc1OC [Nobiletin]
Plasma concentration, 0 h ([1]; mean ± S.D., n = 4): BQL
Plasma concentration, 0.5 h ([1]; 0.5 h after single oral rikkunshito 7.5 g, mean ± S.D., n = 4): 47.0 ± 47.4 pg/mL
Plasma concentration, 1 h ([1]; 1 h after single oral rikkunshito 7.5 g, mean ± S.D., n = 4): 28.2 ± 38.9 pg/mL
Plasma concentration, 2 h ([1]; 2 h after single oral rikkunshito 7.5 g, mean ± S.D., n = 4): 5.45 ± 10.9 pg/mL
Plasma concentration, 4 h ([1]; 4 h after single oral rikkunshito 7.5 g, mean ± S.D., n = 4): BQL
Plasma concentration, 8 h ([1]; 8 h after single oral rikkunshito 7.5 g, mean ± S.D., n = 4): BQL
Stability in blood, RR ([2]; 8 pg/mL, at room temperature for 2 h): 86.3%
Stability in blood, RR ([2]; 8 pg/mL, on ice for 2 h): 91.7%
Stability in blood, RR ([2]; 320 pg/mL, at room temperature for 2 h): 99.2%
Stability in blood, RR ([2]; 320 pg/mL, on ice for 2 h): 91.3%
Post-preparative stability, RR ([3]; 8 pg/mL, autosampler set at 4°C for 24 h): 89.5%
Post-preparative stability, RR ([3]; 8 pg/mL, autosampler set at 4°C for 48 h): 87.7%
Post-preparative stability, RR ([3]; 320 pg/mL, autosampler set at 4°C for 24 h): 88.0%
Post-preparative stability, RR ([3]; 320 pg/mL, autosampler set at 4°C for 48 h): 89.7%
Short-term stability, RR ([4]; 8 pg/mL, at room temperature for 4 h): 106.5%
Short-term stability, RR ([4]; 8 pg/mL, at room temperature for 25 h): 114.3%
Short-term stability, RR ([4]; 320 pg/mL, at room temperature for 4 h): 109.7%
Short-term stability, RR ([4]; 320 pg/mL, at room temperature for 25 h): 92.5%
Maximum plasma concentration in the preliminary pharmacokinetics study ([5]; in vivo): 0.0626 ± 0.0436 ng/mL
Freeze-thaw stability, RR ([6]; 8 pg/mL, deep freezer (−30°C to −10°C), after 3 cycles of freeze-thaw): 86.0%
Freeze-thaw stability, RR ([6]; 320 pg/mL, deep freezer (−30°C to −10°C), after 3 cycles of freeze-thaw): 107.9%
Dose proportionality test using power model, Inference ([7]; AUC0-last): Nonlinear
Dose proportionality test using power model, β ([7]; AUC0-last): 0.604
Dose proportionality test using power model, Inference ([7]; Cmax): Nonlinear
Dose proportionality test using power model, β ([7]; Cmax): 0.701
Working solution stability, RR ([8]; 0.04 ng/mL, refrigerator (1°C to 8°C) for 53 days): 95.0%
Working solution stability, RR ([8]; 0.04 ng/mL, refrigerator (1°C to 8°C) for 128 days): 89.0%
Working solution stability, RR ([8]; 4 ng/mL, refrigerator (1°C to 8°C) for 53 days): 102.6%
Working solution stability, RR ([8]; 4 ng/mL, refrigerator (1°C to 8°C) for 128 days): 109.6%
Stock solution stability, RR ([8]; 0.1 mg/mL, refrigerator (1°C to 8°C) for 54 days): 54 days: 99.8%
Stock solution stability, RR ([8]; 0.1 mg/mL, refrigerator (1°C to 8°C) for 129 days): 129 days: 89.1%
Long-term stability, RR ([9]; 8 pg/mL, freezer (−30°C to −10°C) for 13 days): 91.2%
Long-term stability, RR ([9]; 8 pg/mL, freezer (−30°C to −10°C) for 39 days): 88.0%
Long-term stability, RR ([9]; 8 pg/mL, freezer (−30°C to −10°C) for 228 days): 89.9%
Long-term stability, RR ([9]; 320 pg/mL, freezer (−30°C to −10°C) for 13 days): 114.0%
Long-term stability, RR ([9]; 320 pg/mL, freezer (−30°C to −10°C) for 39 days): 114.3%
Long-term stability, RR ([9]; 320 pg/mL, freezer (−30°C to −10°C) for 228 days): 103.2%
